MIC, IC50 and Activity data for 23 compounds are collected here from ChEMBL document CHEMBL4033728, “Synthesis and structure-activity relationship study of novel quinazolinone-based inhibitors of MurA” (Bioorg Med Chem Lett, 2017).

Converted amounts (≈) assume the structure as drawn.

For test [1], the system named is Staphylococcus aureus. Put plainly: Antibacterial activity against Staphylococcus aureus ATCC 29213 incubated for 18 to 24 hrs by broth microdilution method. The test is classed as functional.
Test [2] can be described thus: Inhibition of Escherichia coli MurA using UDP-GlcNAc and PEP as substrate incubated for 15 mins by Malachite green method.
For test [3], the system named is Escherichia coli. Put plainly: Antibacterial activity against Escherichia coli ATCC 25922 incubated for 18 to 24 hrs by broth microdilution method. The test is classed as functional.
The test system of test [4] is Escherichia coli. The test is described as follows: Antibacterial activity against Escherichia coli. The test is classed as functional.
The subject of test [5] is Staphylococcus aureus. Put plainly: Antibacterial activity against Staphylococcus aureus. Type of test: functional.
A short description of test [6]: Inhibition of Escherichia coli MurA.
The test system of test [7] is Escherichia coli. Put plainly: Inhibition of Escherichia coli MurA assessed as residual enzyme activity at 100 uM using UDP-GlcNAc and PEP as substrate incubated for 15 mins by Malachite green method.

Broadly, the MIC is the lowest concentration that inhibits growth of the organism. A higher MIC goes with a need for much substance. For orientation: IC50 means the point on the concentration scale where inhibition reaches its midpoint. For `O=c1[nH]c(-c2ccc(OCc3ccccc3)cc2)nc2ccccc12`, the MIC with Staphylococcus aureus [1] and with Escherichia coli [3] was over 128 µg/mL in each case. Further, the IC50 in test [2] came out at 36 µM.

Turning to `Cc1ccc(-c2nc3ccccc3c(=O)[nH]2)o1`, the minimum inhibitory concentration (MIC) in the test with Staphylococcus aureus [1] and against Escherichia coli [3] was over 128 µg/mL in each case. Further, inhibition in test [2] was half-maximal at 81 µM (IC50).

Turning to `O=c1[nH]c(-c2cccc(OCc3ccc(F)cc3)c2)nc2ccccc12`, the minimal inhibitory concentration (MIC) in the test on Staphylococcus aureus [1] and against Escherichia coli [3] was over 128 µg/mL throughout. The compound further gave an IC50 in test [2] of 19 µM.

For `O=c1[nH]c(-c2ccc(-c3ccccc3)s2)nc2ccsc12`, the results for the MIC in the test on Staphylococcus aureus [1] and with Escherichia coli [3] were at least 128 µg/mL and over 128 µg/mL, respectively. Moreover, the IC50 in test [2] lay in the range of 22 to 30 µM.

Regarding `O=c1[nH]c(-c2ccc(-c3ccccc3)cc2)nc2ccccc12`, the MIC in the test with Staphylococcus aureus [1] and against Escherichia coli [3] was over 128 µg/mL each time. The compound further gave a 50% inhibitory concentration (IC50) in test [2] of 21 µM.

Take `O=c1[nH]c(-c2ccc(-c3ccccc3)s2)nc2ccccc12`: the MIC against Staphylococcus aureus [1] and against Escherichia coli [3] was over 128 µg/mL in each case. The compound also had an IC50 in test [2] of 17 µM.

On to `Cn1cc[n+](C(Cn2cnc3ccc(Cl)cc3c2=O)c2cc3cc(Br)ccc3o2)c1.[Cl-]` (stereo not drawn), for which the MIC came out at 128 µg/mL in the test with Escherichia coli [4] and 16 µg/mL in the test on Staphylococcus aureus [5].

As to `O=c1[nH]c(-c2ccco2)nc2ccccc12`, the MIC in the test on Staphylococcus aureus [1] and in the test with Escherichia coli [3] was over 128 µg/mL each time. This compound yielded an IC50 in test [2] of 101 µM.

`O=c1[nH]c(-c2ccc(Br)o2)nc2ccccc12`: the minimum inhibitory concentration (MIC) with Staphylococcus aureus [1] and against Escherichia coli [3] was over 128 µg/mL throughout. Also, half-maximal inhibition in test [2] (IC50) required 56 µM.

On to `O=c1[nH]c(-c2cccc(OCc3ccccc3)c2)nc2ccccc12`, for which the MIC against Staphylococcus aureus [1] and against Escherichia coli [3] was over 128 µg/mL throughout. In test [2], this compound came in with an IC50 of 23 µM.

Turning to `O=c1[nH]c(/C=C/c2ccccc2)nc2ccccc12`, the MIC in the test on Staphylococcus aureus [1] and in the test with Escherichia coli [3] was over 128 µg/mL in each case. Besides, in test [2], the IC50 is 51 µM.

`COC(=O)c1ccc(COc2cccc(-c3nc4ccccc4c(=O)[nH]3)c2)cc1`: the MIC against Staphylococcus aureus [1] and against Escherichia coli [3] was over 128 µg/mL in each case. The compound further came in with a half-maximal inhibitory concentration (IC50) in test [2] of 21 µM.

As to `Cn1c(-c2ccco2)nc2ccccc2c1=O`, the MIC against Staphylococcus aureus [1] and against Escherichia coli [3] was over 128 µg/mL each time. Also, it took 72 µM to reach half-maximal inhibition in test [2] (IC50).

As for `CC(C)n1c(-c2ccc([N+](=O)[O-])o2)nc2ccccc2c1=O`, the MIC in the test with Staphylococcus aureus [1] came to 8 µg/mL (≈ 26.7 µM); in the test with Escherichia coli [3] it was 2 µg/mL (≈ 6.68 µM). For the same compound, in test [2], the IC50 was determined as 87 µM.

In the case of `O=c1[nH]c(-c2ccc(OCc3ccccc3)cc2)nc2ccsc12`, the MIC in the test on Staphylococcus aureus [1] and with Escherichia coli [3] was at least 128 µg/mL each time. In test [2], this compound had a concentration for half-maximal inhibition (IC50) of 22 to 30 µM.

For `O=c1[nH]c(-c2cccc(OCc3ccc(Cl)cc3)c2)nc2ccccc12`, the MIC with Staphylococcus aureus [1] and in the test on Escherichia coli [3] was over 128 µg/mL each time. For the same compound, inhibition in test [2] was half-maximal at 8 µM (IC50).

On to `O=c1[nH]c(-c2ccc([N+](=O)[O-])o2)nc2ccccc12`, for which the results for the minimum inhibitory concentration (MIC) against Staphylococcus aureus [1] and against Escherichia coli [3] were 8 µg/mL (≈ 31.1 µM) and 1 µg/mL (≈ 3.89 µM), respectively. In test [2], this compound had an IC50 of 47 µM.

Turning to `C[C@@H]1O[C@@H]1P(=O)(O)O` [FOSFOMYCIN], the MIC against Escherichia coli [4] and in the test with Staphylococcus aureus [5] was 16 µg/mL (≈ 116 µM) each time. For the same compound, the IC50 in test [6] was found to be 8.8 µM.

For the compound `O=c1[nH]c(-c2ccco2)nc2ccsc12`, the MIC against Staphylococcus aureus [1] and in the test on Escherichia coli [3] was over 128 µg/mL throughout. Besides, the IC50 in test [2] amounted to 94 µM.

Consider `O=C(O)c1cccc(COc2ccc(-c3nc4ccccc4c(=O)[nH]3)cc2)c1`, for which the minimal inhibitory concentration (MIC) in the test with Staphylococcus aureus [1] and in the test with Escherichia coli [3] was over 128 µg/mL throughout. Also, the Activity with Escherichia coli [7] worked out at 85%.

As to `CCCCCCCOc1ccc(-c2nc3ccccc3c(=O)[nH]2)cc1`, the minimum inhibitory concentration (MIC) against Staphylococcus aureus [1] and in the test on Escherichia coli [3] was over 128 µg/mL in each case. Further, the concentration for half-maximal inhibition (IC50) in test [2] came out at 84 µM.

In the case of `O=c1[nH]c(-c2cccc(OCc3ccc(C(F)(F)F)cc3)c2)nc2ccccc12`, the minimal inhibitory concentration (MIC) against Staphylococcus aureus [1] and with Escherichia coli [3] was over 128 µg/mL each time. For the same compound, the Activity with Escherichia coli [7] was 88%.

On to `O=c1[nH]c(-c2ccc(Cl)cc2)nc2ccccc12`, for which the minimal inhibitory concentration (MIC) in the test with Staphylococcus aureus [1] and against Escherichia coli [3] was over 128 µg/mL each time. Besides, the Activity in the test with Escherichia coli [7] was found to be 72%.
